These results are taken from paper PMC8147254, “Efflux at the Blood-Brain Barrier Reduces the Cerebral Exposure to Ochratoxin A, Ochratoxin α, Citrinin and Dihydrocitrinone” (Toxins, 2021).

Data set [1] deals with PBCEC. The data set is classed as cell-based, porcine. Conditions: 1 µM apical, 48 h, referred to t = 0 h, n = 9 (negative control 88 ± 4%). On the procedure: (§1) In order to study the barrier integrity PBCEC were incubated with 1 µM OTA, OTα, CIT and DHCIT in the apical compartment (blood side) of Transwell® filter inserts for 48 h. The TEER values as well as the electrical capacitance (cCL) were monitored by cellular impedance spectroscopy (Figure 4A,B). As a negative control the permeability of […] was measured after 48 h. Sucrose is not transported by any cellular transport protein and represents a marker for an intact BBB.
For barrier integrity, TEER values were monitored using a cellZscope® cellular impedance spectrometer (nanoAnalytics, Münster, Germany). […]. The detailed protocols can be found in the Supplementary Materials. […]
6.1. Cellular impedance spectroscopy
To monitor the barrier integrity during all transfer studies, the transendothelial electrical resistance (TEER) was measured with a cellZscope® cellular impedance spectrometer (nanoAnalytics, Münster, Germany) using a module suitable for 24 Transwell® filter inserts. After the mycotoxins were added to the cell culture medium, TEER was analyzed until the end of the experiment (48 h). The waiting time after each run was set to 10 min, resulting in 60 scans per 48 h.
The results were normalized to the TEER values of the first impedance spectrum of each well. Data processing was performed using the cellZscope 1.3.4 software (nanoAnalytics, Münster, Germany).

For data set [2], the system named is PBCEC. Put plainly: Electrical capacitance cCL of the cell monolayer by impedance spectroscopy. The format is cell-based, porcine. Conditions: 1 µM apical, referred to t = 0 h, n = 9 (negative control 99 ± 2%). On the procedure: as §1
Besides the TEER values, the electrical capacitance cCL of the cell monolayer was also monitored for 48 h (Figure 4B). As cellular bilayer membranes behave like an electrical capacitor, they influence the cellular impedance. Changes in cCL are markers for the integrity of the cells. Weak cytotoxic effects lead to a reduction of cCL, whereas strong cytotoxic effects result in an exponential increase in cCL to more than 150% due to the usually observed detachment of the cells from the surface.
For barrier integrity, TEER values were monitored using a cellZscope® cellular impedance spectrometer (nanoAnalytics, Münster, Germany). […]. The detailed protocols can be found in the Supplementary Materials.
After 48 h the medium was […]
The Transwell® filters were briefly […]
equipped with a 24 12‐well Transwell® filter setup. Each well was previously filled with 1650 μL serum‐free medium. Transendothelial electrical resistances (TEER) were analyzed using the cellZscope® device. Only Transwell® filters with TEER values of more than 600 Ω∙cm² and electrical […]
76 μ L of the medium in the apical […]
concentration of the mycotoxins was 1 μM at the beginning of the mycotoxin incubation. The final solvent concentration was 0.1% ACN. […]
and 48 h after toxin application. […]

For data set [3] the following is noted: 50 German volunteers, dried blood spot; cited from earlier work.
For data set [4] the following is noted: 13 German volunteers; cited from earlier work.
The conditions of data set [5]: 289 µg OTA/kg body weight/48 h for up to 6 weeks; cited from earlier work.

With `CC1=C2C(=CO[C@H](C)[C@H]2C)C(O)=C(C(=O)O)C1=O` [CIT, Citrinin], the “relative TEER value after 48 h” value in the data set with PBCEC [1] is 81 ± 10%. The “electrical capacitance cCL after 48 h” value in the data set with PBCEC [2] is on record as 97 ± 4%.
With `Cc1c(O)c(C(=O)O)c(O)c2c1[C@H](C)[C@@H](C)OC2=O` [DHCIT, dihydrocitrinone], in the data set with PBCEC [1], the “relative TEER value after 48 h” value was determined as 79 ± 9%. Besides, the “electrical capacitance cCL after 48 h” value in the data set on PBCEC [2] is listed as 99 ± 4%.
As to `C[C@@H]1Cc2c(Cl)cc(C(=O)N[C@@H](Cc3ccccc3)C(=O)O)c(O)c2C(=O)O1` [OTA, Ochratoxin A], the “mean whole blood concentration of OTA” value in data set [3] is 0.21 ± 0.066 ng/mL. The “relative TEER value after 48 h” value with PBCEC [1] came to 62 ± 10%. In data set [4], the “mean OTA concentration in blood plasma” value is given as 0.25 ± 0.03 ng/mL. In addition, the “concentration in brain tissue” value in data set [5] was “up to 94 ± 16 ng/g”. For the same molecule, in the data set on PBCEC [2], the “electrical capacitance cCL after 48 h” value was 96 ± 4%.
Regarding `C[C@@H]1Cc2c(Cl)cc(C(=O)O)c(O)c2C(=O)O1` [OTα, ochratoxin α], in the data set on PBCEC [1], the “relative TEER value after 48 h” value worked out at 92 ± 16%. Also, the “mean total OTα level in blood plasma” value in data set [4] was 2.99 ± 2.24 ng/mL. The “electrical capacitance cCL after 48 h” value in the data set with PBCEC [2] was found to be 98 ± 2%.
